Like-named read-outs stand apart in the source and are kept apart here.
What was measured:
Na^+, K^+ -ATPase = conditions: reported in literature / other filings; cited from earlier work
[1] = reported in literature; cited from earlier work
[2] = target: Na^+, K^+ -ATPase receptor; assay: displacement of the specific ^3 H-ouabain binding from the Na^+, K^+ -ATPase receptor; conditions: ^3 H-ouabain displacement, purified Na^+
Text: a) displacement of the specific ^3 H-ouabain binding from the Na^+, K^+ -ATPase receptor purified according to Jorghensen (Jorghensen P., BBA, 1974, 356, 36) and Erdmann (Erdmann E. et al., Arzneim. Forsh., 1984, 34, 1314);

[3] = target: T1, purified Na^+, K^+ -ATPase (Canis lupus familiaris, UniProt P50997); assay: inhibition of the activity of the purified Na^+, K^+ -ATPase (hydrolysis of ^32 P-ATP); assay type: biochemical
T1 construct: from tissue
Text: To test the affinity for the receptor site of the Na^+, K^+ -ATPase and the inhibition of the activity of the enzyme, the following tests were used:
b) inhibition of the activity of the purified Na^+, K^+ -ATPase measured as % of hydrolysis of ^32 P-ATP in the presence and in the absence of the tested compound (Doucet A. et al., Am. J. Physiol., 1986, 251, F851)

[4] = test system: spontaneous hypertensive rats (MHS); assay: effect of 5 week-treatment in spontaneous hypertensive rats (MHS) on the development of hypertension (SBP and HR, tail cuff method); assay type: in vivo, rat; conditions: 5 weeks, in Methocel 0.5% w/v; for SBP: controls 170 +/- 5.5; for HR: controls 378 +/- 12.0
Method: Systolic blood pressure (SBP) and hear rate (HR) were measured, by the tail cuff method, in young prehypertensive male rats (MHS or SHR) strains before the development of hypertension (4 weeks of age) for recording the basal values of SBP. Groups of 7 rats were formed and subdivided in control and treated groups.
The compound, suspended in Methocel 0.5% (w/v), was orally given daily for at least 5 weeks to the treated groups. The control group received only Methocel.
SBP and HR were measured weekly 6 and 24 hrs after treatment. After 5 weeks of treatment, when hypertension was fully developed in the control group (9 weeks of age), washout was started for at least one week, to verify whether the treatment maintained blood pressure low or reestablished the basal values.
(Takeda K. et al., Japan J. Pharmacol., 1979, 29, 171; Takeda K. et al. Japan J. Pharmacol., 1982, 32, 283; Richer C. et al. Eur. J. Pharmacol, 1978, 47,393).

[5] = hydrolysis of ^32 P-ATP, purified Na^+, K^+ -ATPase, read-out: Inhibitory Activity (-log IC50) (converted)

## C[C@]12CC[C@H](O)C[C@H]1CC[C@@H]1[C@@H]2CC[C@]2(C)C(=NNC(=N)N)CC[C@]12O [17-guanidinoimino-5β-androstane-3β,14β-diol]
Na^+, K^+ -ATPase
  inhibition of Na^+, K^+ -ATPase: weak inhibitors of Na^+, K^+ -ATPase

## C[C@]12CC[C@H](O)C[C@H]1CC[C@@H]1[C@@H]2CC[C@]2(C)[C@@H](C=NNC(=N)N)CC[C@]12O [17β-guanidinoiminomethyl-5β-androstane-3,β,14β-diol]
Na^+, K^+ -ATPase
  inhibition of Na^+, K^+ -ATPase: weak inhibitors of Na^+, K^+ -ATPase
[1]
  positive inotropic activity: weak positive inotropic agents

## C[C@]12CC[C@H](O)C[C@H]1CC[C@@H]1[C@@H]2CC[C@]2(C)[C@@H](CNOCCN)CC[C@]12O [Comp. I-aj, 17β-(2-Aminoethoxyamino)methyl-5β-androstane-3β,14β-diol]
[2]
  Binding ^3 H-Ouab. Displacement (-log IC50): 7.2
[3]
  IC50: 1 µM
[4]; 0.1 mg/Kg/os daily
  SBP: 150 +/- 4.1 mm Hg
  HR: 372 +/- 11.7 beats/min.

## CN(C)CCONC[C@H]1CC[C@]2(O)[C@@H]3CC[C@@H]4C[C@@H](O)CC[C@]4(C)[C@H]3CC[C@]12C [Comp. I-am, 17β-(2-Dimethylaminoethoxyamino)methyl-5β-androstane-3β,14β-diol]
[2]
  Binding ^3 H-Ouab. Displacement (-log IC50): 6.1
[3]; [5]
  IC50: 50.1 µM
[4]; 1 mg/Kg/os daily
  SBP: 152 +/- 5.3 mm Hg
  HR: 365 +/- 10.1 beats/min.
[4]; 10 mg/Kg/os daily
  SBP: 149 +/- 4.5 mm Hg
  HR: 370 +/- 14.7 beats/min.

## CN(C)CCONC[C@H]1CC[C@]2(O)[C@@H]3CC[C@@H]4C[C@@H](OCCCN)CC[C@]4(C)[C@H]3CC[C@]12C [Comp. I-bb, 3β-(3-Aminopropoxy)-17β-(2-dimethylaminoethoxyamino)methyl-5β-androstane-14β-ol]
[2]
  Binding ^3 H-Ouab. Displacement (-log IC50): 6.3
[3]
  IC50: 31.6 µM
[4]; 1 mg/Kg/os daily
  SBP: 153 +/- 6.2 mm Hg
  HR: 367 +/- 14.3 beats/min.
[4]; 10 mg/Kg/os daily
  SBP: 150 +/- 4.2 mm Hg
  HR: 375 +/- 12.1 beats/min.

## CN(C)CCONC[C@H]1CC[C@]2(O)[C@@H]3CC[C@@H]4C[C@@H](OCCN)CC[C@]4(C)[C@H]3CC[C@]12C [Comp. I-bc, 3β-(2-Aminoethoxy)-17β-(2-dimethylaminoethoxyamino)methyl-5β-androstane-14β-ol]
[2]
  Binding ^3 H-Ouab. Displacement (-log IC50): 6.1
[3]; [5]
  IC50: 39.8 µM

## CN(C)CCONC[C@H]1CC[C@]2(O)[C@@H]3CC[C@@H]4C[C@@H](OCCN5CCCC5)CC[C@]4(C)[C@H]3CC[C@]12C [Comp. I-bd, 3β-[2-(1-Pyrrolidinyl)ethoxy]-17β-(2-dimethylaminoethoxyamino)methyl-5β-androstane-3β,14β-diol]
[2]
  Binding ^3 H-Ouab. Displacement (-log IC50): 6.2
[3]
  IC50: 31.6 µM
